In article PMC4198181, “Gold(I) Complexes of 9-Deazahypoxanthine as Selective Antitumor and Anti-Inflammatory Agents” (PLoS ONE, 2014):

How the values were obtained:
[1] = tested on: THP-1 monocytic leukaemia cells; assay: WST-1 in vitro cytotoxicity, THP-1; format: cell-based, human; settings: 24 h treatment, WST-1, 0.16–10.00 µM; read-out: IC50±S.E., THP-1
Procedure: Before the in vitro anti-inflammatory testing, in vitro cytotoxicity on human monocytic leukaemia cells (THP-1, ECACC no. 88081201) was determined using the WST-1 assay. The THP-1 cells (floating monocytes, 500 000 cells/mL) were incubated in 100 µL of the serum-free RPMI 1640 medium and seeded into 96-well plates in triplicate at 37°C. Measurements were taken 24 h after the treatment with the tested compounds dissolved in 0.1% DMSO in the concentration range of 0.16–10.00 µM. Viability was determined by the WST-1 test according to the manufacturer's manual. The amount of the formed formazan (which correlates to the number of metabolically active cells in the culture) was calculated as a percentage of the control cells, which were treated only with 0.1% DMSO and was set-up as 100%. The IC50 values of the tested compounds were calculated from the obtained data. The WST-1 assay was performed spectrophotometrically at 440 nm (FLUOstar Omega, BMG Labtech).
The cytotoxicity data were expressed as the percentage of viability, where 100% represented the treatments with vehicle (0.1% DMF or 0.1% DMSO). The cytotoxicity data from the cancer cell lines were acquired from three independent experiments (conducted in triplicate) using cells from different passages. The IC50 values were calculated from viability curves. The results are presented as arithmetic means±standard error of the mean (S.E.). The significance of the differences between the results was assessed by the ANOVA analysis with p<0.05 considered to be significant (QC Expert 3.2, Statistical software, TriloByte Ltd., Pardubice, Czech Republic).

TNF-α mRNA = assay: TNF-α gene expression by RT-qPCR in LPS-stimulated THP-1 macrophages; format: cell-based, human; settings: 300 nM, 2 h after LPS, normalised to β-actin
Procedure: (§1) For the determination of biological activity, we used the human monocytic leukaemia cell line THP-1 (ECACC, Salisbury, UK). The cells were cultivated at 37°C in the RPMI 1640 medium supplemented with 2 mM L-glutamine, 10% FBS, 100 U/mL of penicillin and 100 µg/mL of streptomycin in a humidified atmosphere containing 5% CO2. Stabilized cells (3rd–15th passage) were split into microtitration plates to get a concentration of 500 000 cells/mL and the differentiation to macrophages was induced by phorbol myristate acetate (PMA) dissolved in dimethyl sulfoxide (DMSO) at the final concentration of 50 ng/ml, and the cells were incubated for 24 h. In comparison with monocytes, differentiated macrophages tend to adhere to the bottoms of the cultivation plates. For next 24 h the cells were incubated with a fresh complete RPMI medium, i.e. containing antibiotics and FBS, without PMA. The medium was then aspirated, and the cells were washed with PBS and cultivated for next 24 hours in serum-free RPMI 1640 medium. These prepared macrophages were used for the detection of inflammatory response.
(§2) In the order to evaluate the expression of TNF-α, IL-1β, and β-actin mRNA, total RNA was isolated directly from the LPS-stimulated THP-1 cells. THP-1 macrophages were pretreated with compounds 2, 5, and Auranofin at the concentration of 300 nM or the vehicle (0.1% DMSO) only. After 1 h of the incubation, the inflammatory response was induced by LPS [except for the control cells (CTRL)]. After 2 h of the incubation with LPS, the medium was aspirated and the total RNA was isolated directly from the cells in cultivation plates using a RealTime Ready Cell Lysis Kit (Roche), according to the manufacturer's instructions.
(§3) The gene expression was quantified by two-step reverse-transcription quantitative (real-time) PCR (RT-qPCR). The reverse transcription step was performed by Transcriptor Universal cDNA Master using cell lysate as a template. […] The results were normalized to the amount of ROX reference dye, and the change in gene expression was determined by the 2^−ΔΔCT method. […]

IL-1β mRNA = assay: IL-1β gene expression by RT-qPCR in LPS-stimulated THP-1 macrophages; format: cell-based, human; settings: 300 nM, 2 h after LPS, normalised to β-actin
Procedure: as §1, §2, §3

[2] = tested on: IκB-α degradation (NF-κB signalling pathway); assay: LPS-induced IκB-α degradation (Western blot) in THP-1 macrophages; format: cell-based, human; settings: 300 nM, 30 min after LPS
Procedure: Macrophage-like THP-1 cells were pretreated with the tested compounds and stimulated by LPS as was describe above. Thirty minutes after the addition of LPS, the medium was aspirated and cells were washed by cold phosphate buffer solution (PBS). Subsequently, the cells were collected using the lysis buffer [50 mM Tris-HCl pH 7.5, 1 mM EGTA, 1 mM EDTA, 1 mM sodium orthovanadate, 50 mM sodium fluoride, 5 mM sodium pyrophosphate, 270 mM sucrose, 0.1% (v/v) Triton X-100, and cOmplete Protease Inhibitor Cocktail (Roche, Germany)] and scraper. The lysis of cells was facilitated by a short (≈30 s) incubation in the ultrasonic water bath. The protein concentration was determined according to Bradford's method. For protein separation, 30 µg of protein was loaded onto the 12% polyacrylamide gel. […] The membranes were incubated with the primary anti-IκB-α antibody at the concentration ratio of 1∶500, or with the primary anti-β-actin at the concentration ration of 1∶5 000 at 4°C for 16 h. After washing, the secondary anti-mouse IgG antibody diluted 1∶2 000 was applied on the membranes and incubated at laboratory temperature (22°C) for 1 h. The amount of the bound secondary antibody was detected colorimetrically by an Opti-4CN Kit according to the manufacturer's manual.

[3] = tested on: G361 malignant melanoma cells; assay: MTT in vitro cytotoxicity, G361; format: cell-based, human; settings: 24 h treatment, read-out: IC50±S.E., G361
Procedure: In vitro cytotoxic activity was determined by the MTT assay in human breast adenocarcinoma (MCF7; ECACC no. 86012803), human osteosarcoma (HOS; ECACC no. 87070202), lung carcinoma (A549; ECACC no. 86012804), malignant melanoma (G361; ECACC no. 88030401), cervix epitheloid carcinoma (HeLa; ECACC no. 93021013), ovarian carcinoma (A2780; ECACC no. 93112519), cisplatin-resistant ovarian carcinoma (A2780R; […] ECACC no 105092802) cancer cell lines, purchased from European Collection of Cell Cultures (ECACC). […] The primary culture of human hepatocytes (HEP220, batch number HEP220819) was obtained from Biopredic International (France). The culture medium was Williams and HAM's F-12 (1∶1) supplemented with penicillin, streptomycin, ascorbic acid, linoleic acid, holo-transferin, ethanolamine, glucagon, insulin, dexamethasone, pyruvate, glucose, glutamine, amphotericin. The medium was enriched for plating with 2% foetal calf serum (v/v). The medium was exchanged for a serum-free medium the day after and the culture was stabilized for additional 24 h. Thereafter, the cells were ready for treatments. […] The MTT assay was performed spectrophotometrically at 540 nm (TECAN, Schoeller Instruments LLC). The cytotoxicity data were expressed as the percentage of viability, where 100% represented the treatments with vehicle (0.1% DMF or 0.1% DMSO). The cytotoxicity data from the cancer cell lines were acquired from three independent experiments (conducted in triplicate) using cells from different passages. The IC50 values were calculated from viability curves. The results are presented as arithmetic means±standard error of the mean (S.E.).

[4] = tested on: human cancer cell lines (MCF7, HOS, A549, G361, HeLa, A2780, A2780R, 22Rv1); assay: MTT in vitro cytotoxicity, summary over the panel of human cancer cell lines; format: cell-based; settings: 24 h, MTT; HAuCl4 except on G361; read-out: IC50 against all the cancer cell lines tested (inactive up to the stated concentration)
Procedure: In vitro cytotoxic activity was determined by the MTT assay in human breast adenocarcinoma (MCF7; ECACC no. 86012803), human osteosarcoma (HOS; ECACC no. 87070202), lung carcinoma (A549; ECACC no. 86012804), malignant melanoma (G361; ECACC no. 88030401), cervix epitheloid carcinoma (HeLa; ECACC no. 93021013), ovarian carcinoma (A2780; ECACC no. 93112519), cisplatin-resistant ovarian carcinoma (A2780R; ECACC no. 93112517) and prostate carcinoma (22Rv1; ECACC no 105092802) cancer cell lines, purchased from European Collection of Cell Cultures (ECACC). The cells were cultured according to the ECACC instructions and they were maintained at 37°C and 5% CO2 in a humidified incubator. The primary culture of human hepatocytes (HEP220, batch number HEP220819) was obtained from Biopredic International (France). The culture medium was Williams and HAM's F-12 (1∶1) supplemented with penicillin, streptomycin, ascorbic acid, linoleic acid, holo-transferin, ethanolamine, glucagon, insulin, dexamethasone, pyruvate, glucose, glutamine, amphotericin. The medium was enriched for plating with 2% foetal calf serum (v/v). The medium was exchanged for a serum-free medium the day after and the culture was stabilized for additional 24 h. Thereafter, the cells were ready for treatments. The cultures were maintained at 37°C and 5% CO2 in a humidified incubator. The cells were treated with complexes 1–5 (at the concentration levels of 0.01, 0.1, 1.0, 5.0, 25.0, and 50.0 µM), starting compounds e.g. HL1–5, AuCl, and cisplatin (applied up to 50 µM) for 24 h, using multi-well culture plates of 96 wells. […]
The cytotoxicity data were expressed as the percentage of viability, where 100% represented the treatments with vehicle (0.1% DMF or 0.1% DMSO). […] The IC50 values were calculated from viability curves. […] The significance of the differences between the results was assessed by the ANOVA analysis with p<0.05 considered to be significant (QC Expert 3.2, Statistical software, TriloByte Ltd., Pardubice, Czech Republic).

[5] = tested on: TNF-α secretion in LPS-stimulated macrophage-like THP-1 cells; assay: LPS-induced TNF-α secretion in THP-1 macrophages (ELISA); format: cell-based, human; settings: 300 nM, 1 h pretreatment, 24 h after LPS
Procedure: as §1
(§4) Differentiated macrophages were pretreated with 300 nM solutions of the tested complexes, HLn, AuCl, [AuCl(PPh3)], PPh3 and Auranofin dissolved in DMSO (the final DMSO concentration was 0.1%) and with 0.1% DMSO solution itself (vehicle) for 1 h; the given concentrations of the tested compounds lack the cytotoxic effect (cell viability >94%) based on the results of WST-1 test. The inflammatory response in pretreated macrophages was triggered by the addition of 1.0 µg/mL lipopolysaccharide (LPS) dissolved in water, while the control cells (CTRL) remained without the LPS treatment.
(§5) Macrophages, which were pretreated with the tested compounds (complexes 1–5, HLn, AuCl, [AuCl(PPh3)], PPh3 and Auranofin) for 1 h, were incubated with LPS for next 24 h. After this period, the medium was collected and the concentration of TNF-α, and IL-1β was determined by the Instant ELISA Kit according to the manufactures' manual.
(§6) The statistically significant differences between individual groups during anti- inflammatory testing were evaluated using a one-way ANOVA test for statistical analysis, followed by Tukey's post-hoc test for multiple comparisons. GraphPad Prism 5.02 (GraphPad Software Inc., San Diego, CA, USA) was used to perform the analysis. The results are presented as arithmetic means±S.E. values.

[6] = tested on: IL-1β secretion in LPS-stimulated macrophage-like THP-1 cells; assay: LPS-induced IL-1β secretion in THP-1 macrophages (ELISA); format: cell-based, human; settings: 300 nM, 1 h pretreatment, 24 h after LPS
Procedure: as §1, §4, §5, §6

SMILES | IC50 [1] | effect on TNF-α mRNA transcription (TNF-α mRNA) | effect on IL-1β mRNA transcription (IL-1β mRNA) | effect on LPS-induced IκB degradation [2] | IC50 [3] | IC50 [4] | effect on LPS-induced TNF-α secretion [5] | effect on LPS-induced IL-1β secretion [6]
CC[PH](CC)(CC)[Au][S][C@@H]1O[C@H](COC(C)=O)[C@@H](OC(C)=O)[C@H](OC(C)=O)[C@H]1OC(C)=O [Auranofin, triethylphosphine-(2,3,4,6-tetra-O-acetyl-β-D-thiopyranosato)gold(I), reference compound] | 0.9 ± 0.1 µM | significantly reduce the transcription | significantly reduce the transcription | block moderately the IκB degradation |  |  |  | 
[Cl][Au-]([Cl])([Cl])[Cl].[H+] [HAuCl4, reference compound] |  |  |  |  | 38.1 ± 2.3 µM | > 50 µM |  | 
[Au+].[Cl-] [AuCl] |  |  |  |  |  | > 50 µM | none of the reference compounds, such as AuCl, HLn, [AuCl(PPh3)] and PPh3, exhibited any expected effect | decreased the production of IL-1β by a manner comparable to free ligands
